Assay results published in patent publication US9642895B2, “Peptides for enhancing transdermal delivery” (3M INNOVATIVE PROPERTIES COMPANY, priority 2013, dated 2017).

How the values were obtained:
human cadaver skin [1] = assay: Phage display library selection for skin penetration using tape stripping; type: in vitro ADME; settings: phage-displayed peptide; phages recovered from tape strips 21-24 and remaining skin after 4 rounds of selection; 57 plaques sequenced
Method: (§1) Human cadaver skin was stored frozen. Prior to using, the frozen sections were placed in PBS and warmed to room temperature. The phage libraries or synthesized peptide sequences were applied to the stratum corneum side of the skin sample.
A tube containing LB medium (2 mL) and tetracycline (at a concentration of 20 μg/mL) was inoculated with E. coli ER2738 cells and then incubated overnight at 37° C. with shaking (200 rpm). An aliquot (100 microliter) was added to 20 mL of fresh LB medium containing 20 μg/mL of tetracycline. The culture was incubated at 37° C. with shaking (200 rpm) of the flask and the cells were grown to the early-log phase (OD600=0.5). Next, the phage sample was added and the culture was maintained for 4 hours at 37° C. with shaking of the flask.
E. coli ER2738 cells were removed from the phage amplified culture sample by centrifugation at 8000 rpm for 10 minutes. The resulting supernatant solution was added to the PEG/NaCl Phage precipitating solution (at a concentration of […]) and then maintained at 4° C. for 2 hours. The resulting phage precipitate was recovered by centrifuging the sample (8000 rpm for 30 min), removing the supernatant, and re-suspending the phage pellet in 2 mL of Tris-buffered saline (Tris buffered saline reagent prepared as 50 mM Tris-HCl in 150 mM NaCl buffered saline, pH 7.5). The amplified phage product was stored at 4° C.
LB Broth Medium (5-10 mL) was inoculated with a single colony of E. coli ER2738 and incubated with shaking (200 rpm) at 37° C. until the cells reached the early-log growth phase (OD600=0.5). The culture medium was then dispensed into multiple microfuge tubes (200 microliters per microfuge tube with one tube prepared for each phage dilution). Ten fold serial dilutions of amplified phage product in LB broth medium were prepared and a 10 microliter aliquot from each dilution was added to a separate microfuge tube containing culture medium. Each tube was vortexed and incubated at room temperature for 1-5 minutes.
The contents of each microfuge tube were transferred to a corresponding culture tube containing 3mL of soft agar maintained at 45° C. Each culture tube was then vortexed and the soft agar was poured onto a corresponding pre-warmed (37° C.) LB/IPTG/X-gal\tetraycline Petri plate. The resulting plates were gently tilted and rotated in order to evenly spread the soft agar on the plates. The plates were cooled for five minutes, inverted, and then incubated overnight at 37° C. Plates having approximately 100 plaques were counted providing an adjustment for the dilution factor. Single plaque phages on the plates were selected and further processed for DNA sequencing.
(§2) E. coli ER2738 cell culture (800 microliters of an early-log phase prepared as described above) was added to each well of a 96 deep well plate (each well having a 2 mL volume). Single plaque phages were randomly selected from Petri plates prepared as described in the phage titration procedure. A sterilized toothpick was used to remove a plaque from the Petri plate and transfer it to a well in the 96 well plate. The infected E. coli ER2738 cells were incubated for 4 hours at 37° C. with shaking (300 rpm). The liquid cultures were then centrifuged (4000 rpm for 60 min at 4° C.) and an aliquot of the resulting phage supernatant (10 microliters) from each well was sequenced for DNA using the rolling circle amplification method. The DNA sequencing was conducted at MCLAB (South San Francisco, Calif.).
Each phage display library (200 microliters in PBS) was applied to a 1 cm^2 section of human cadaver skin using a PIPETMAN Classic pipet (Gilson Inc., Middleton, Wis.). Adhesive tape was used to form a square frame that defined the application site. After 1 hour, the application site was washed with PBS to remove phages remaining on the skin surface. Tape stripping of the skin sample was accomplished using Scotch® box tape (3M Company, Maplewood, Minn.). […]

Hairless guinea pigs = assay: Phage display library selection for skin penetration, in vivo hairless guinea pig procedure; settings: phage-displayed peptide; phages recovered from blood 1 hour after loading on back skin; 48 plaques sequenced
Method: as §2
Hairless guinea pigs (200 gram females from Charles River Laboratory, Wilmington, Mass.) were anesthetized in a chamber using 3-5% isoflurane in oxygen or air, and maintained at 1.5-3% isoflurane with a co-axial breathing device (COAX-3 obtained from Viking Medical, Medford Lakes, N.J.). Each animal was placed in lateral recumbency on a thermostatically controlled surface with its nose and mouth inside the anesthetic face mask for the duration of the experiment. During the procedure, the animal was monitored for respiration rate and the level of anesthesia was adjusted as required. The section of the back used for loading a phage library was wiped with a 70% isopropanol in water solution.
A phage display library containing about 10^11 phage particles in 200 microliters of PBS was loaded onto a 1 cm^2 section of skin on the back of the animal using a PIPETMAN Classic pipet. In order to both control the humidity and reduce contamination at the application site, a Hill Top Chamber® (Hill Top Research, St. Petersburg, Fla.) was placed over the application site and attached with adhesive. After 1 hour, 10 mL of blood was bled from the heart. The blood was immediately transferred to a vial containing heparin (1000 USP units per mL). The sample of blood (10 mL) was mixed with 50 mL of E. coli ER2738 cells in LB broth medium (early log phase, OD600=0.5) and then added to 300 mL of soft agar. Equal portions of soft agar containing blood and ER2738 (about 7 mL per plate) were added to fifty LB/IPTG/X-gal/tetracycline Petri plates. The plates were incubated overnight at 37° C. The resulting single plaque phages were randomly picked from the agar plate and processed for phage DNA sequencing using the procedure described above. DNA sequences were successfully obtained from 48 of the 96 isolated phage plaques.

human cadaver skin [2] = assay: In vitro skin penetration enhancement of GFP, tape stripping; type: in vitro ADME; settings: 0.1 mg peptide with GFP 2.55 mg/mL in PBS; 2 hours at room temperature; 20 tape strips; control without peptide reached tape strip 6
Method: as §1
An in vitro assay to test for skin penetration enhancement was conducted using human cadaver skin. Two test samples (A and B) and a control sample were prepared. Test sample A contained GFP (at a concentration of 2.55 mg/mL), 0.1 mg of the peptide ACLDNTFRAC (Sequence ID No: 6, Table 2), and PBS (50 microliters). Test sample B contained GFP (at a concentration of 2.55 mg/mL), 0.1 mg of the peptide SHSACLDNTFRACGGGS (Sequence ID No: 14, Table 3), and PBS (50 microliters). The control sample contained GFP (at a concentration of 2.55 mg/mL) and PBS (100 microliters). Each sample was applied to a separate 1 cm^2 section of human cadaver skin using a PIPETMAN classic pipet. Adhesive tape was used to form a square frame that defined each application site. The treated skin samples were covered, maintained at room temperature for 2 hours, and then washed with deionized water for 5 minutes to remove any GFP remaining on the skin surface. Tape stripping of each skin application site was accomplished using Scotch® box tape. […]

hairless guinea pig skin = assay: In vitro skin penetration enhancement of FITC, tape stripping; type: in vitro ADME; settings: peptide 1 mg/mL with FITC sodium salt 10 mg/mL in PBS; 1 hour at room temperature; UV 340 nm; spot indicates penetration of FITC to the 20th tape strip
Method: An in vitro assay to test for skin penetration enhancement was conducted using hairless guinea pig skin. A full skin sample from the back region of the animal was used. An individual test sample for each peptide in Table 3 was prepared containing the peptide (at a concentration of 1 mg/mL), FITC sodium salt (at a concentration of 10 mg/mL), and PBS (200 microliters). The control sample was prepared containing only FITC sodium salt (at a concentration of 10 mg/mL), and PBS (200 microliters). Each peptide test sample was applied to a separate 1 cm^2 section on the stratum corneum side of the guinea pig skin using a PIPETMAN Classic pipet. In the same manner, the control sample was applied. The treated skin samples were covered, maintained at room temperature for 1 hour and then washed with deionized water for 5 minutes to remove any FITC remaining on the skin surface. Tape stripping of each skin application site was accomplished using Scotch® box tape. The tape was placed on the skin so that it covered the entire surface of an individual application site (width of tape strip approximately 1.5 cm). For each tape stripping procedure, the tape was secured to the skin with three cycles (3 forward and 3 backward passes) of a 300 g hand held roller. Next the tape was grasped by hand at one end and quickly peeled from the skin surface using a single motion. The exact same procedure of tape stripping was repeated for a total of 20 tape stripping operations at each application site. The 20th tape strip for each sample was imaged for FITC using ultraviolet light at 340 nm. The presence of a fluorescent spot on the tape indicated penetration of FITC to the 20th tape strip.

| Substance | Frequency of Sequence in Plaques from Tape Stripping of Human Cadaver Skin Study (human cadaver skin [1]) | Frequency of Sequence in Plaques from Hairless Guinea Pig Study (Hairless guinea pigs) | deepest penetration of the green fluorescent signal of GFP in the skin sample (tape strip number) (human cadaver skin [2]) | Fluorescent Spot Visualized on Tape Strip #20 (hairless guinea pig skin) |
| --- | --- | --- | --- | --- |
| 1 (ACLPGVLGSC; Phage display library peptides) [compound 1] | 1 n/57 | 0 n/48 | – | – |
| 2 (ACSLPWDASC; Phage display library peptides) [compound 2] | 1 n/57 | 0 n/48 | – | – |
| 3 (ACDTPRLTHC; Phage display library peptides) [compound 3] | 2 n/57 | 0 n/48 | – | – |
| 4 (TWTQAWPWGWTW; Phage display library peptides) [compound 4] | 1 n/57 | 0 n/48 | – | – |
| 5 (AKSSWWGRAYWY; Phage display library peptides) [compound 5] | 1 n/57 | 0 n/48 | – | – |
| 6 (ACLDNTFRAC; Phage display library peptides) [compound 6] | 2 n/57 | 11 n/48 | 14 | – |
| 7 (ASSTTLNTLAQ; Phage display library peptides) [compound 7] | 9 n/57 | 5 n/48 | – | – |
| 8 (ASSDIPLFTRY; Phage display library peptides) [compound 8] | 1 n/57 | 4 n/48 | – | – |
| 10 (SHSACSLPWDASCGGGS; Phage display library peptides) [compound 10] | – | – | – | yes |
| 12 (SHSTWTQAWPWGWTWGGGS; Phage display library peptides) [compound 12] | – | – | – | yes |
| 13 (SHSAKSSWWGRAYWYGGGS; Phage display library peptides) [compound 13] | – | – | – | yes |
| 14 (SHSACLDNTFRACGGGS; Phage display library peptides) [compound 14] | – | – | 20 | yes |
| 15 (SHSASSTTLNTLAQWPA; Phage display library peptides) [compound 15] | – | – | – | yes |
| 16 (SHSASSDIPLFTRYGGGS; Phage display library peptides) [compound 16] | – | – | – | yes |
